Source: patent publication US20220281848A1, “PYRAZOLE-SUBSTITUTED PYRROLIDINONES AS HERBICIDES” (FMC Corporation, priority 2019, published 2022)

System: plants
Assay: Test D pre-emergence, other plants of Tables D1 and D3
Type: in vivo
Conditions: 20 DAA; for damage to plant (100=total damage to plant; 0=no damage to plant), BIDPI / damage to plant (100=total damage to plant; 0=no damage to plant), BRAPL / damage to plant (100=total damage to plant; 0=no damage to plant), CYPES / damage to plant (100=total damage to plant; 0=no damage to plant), EPHHL / damage to plant (100=total damage to plant; 0=no damage to plant), GLXMA / damage to plant (100=total damage to plant; 0=no damage to plant), IPOHE / damage to plant (100=total damage to plant; 0=no damage to plant), SORVU: preemergent; for CHEAL damage rating / GALAP damage rating / KCHSC damage rating / LOLPE damage rating / POAAN damage rating / STEME damage rating / VERPE damage rating: pre-emergence, 100=total damage, 0=no damage
Outline: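 Seeds treated with herbicide safener; sown in soil; glasshouse, 16 h light, 65% humidity. Sprayed day 1 (pre) or ~day 12 (post). Spray in 0.2% v/v adjuvant. Scored 0–100 damage: 20 DAA pre, 15 d post.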

In the case of CN1CC(c2cc(C(F)(F)F)n(C)n2)C(C(=O)Nc2cccc(F)n2)C1=O (racemic) [Compound 24], the “damage to plant (100=total damage to plant; 0=no damage to plant), BIDPI” value (rate 15) is reported as 0, the “damage to plant (100=total damage to plant; 0=no damage to plant), BIDPI” value (rate 30) is reported as 0 and the “damage to plant (100=total damage to plant; 0=no damage to plant), BIDPI” value (rate 60) is reported as 0. For the same molecule, the “damage to plant (100=total damage to plant; 0=no damage to plant), BIDPI” value (rate 130) was 0, the “damage to plant (100=total damage to plant; 0=no damage to plant), BIDPI” value (rate 250) was 0 and the “damage to plant (100=total damage to plant; 0=no damage to plant), BIDPI” value (rate 500) was 0. The “damage to plant (100=total damage to plant; 0=no damage to plant), BRAPL” value (rate 15) was 0, the “damage to plant (100=total damage to plant; 0=no damage to plant), BRAPL” value (rate 30) was 20 and the “damage to plant (100=total damage to plant; 0=no damage to plant), BRAPL” value (rate 60) was 30. The “damage to plant (100=total damage to plant; 0=no damage to plant), BRAPL” value (rate 130) was 80, the “damage to plant (100=total damage to plant; 0=no damage to plant), BRAPL” value (rate 250) was 80 and the “damage to plant (100=total damage to plant; 0=no damage to plant), BRAPL” value (rate 500) was 90. The CHEAL damage rating (Rates 15) was 0, the CHEAL damage rating (Rates 30) was 0 and the CHEAL damage rating (Rates 60) was 0. For the same molecule, the CHEAL damage rating (Rates 130) was 0, the CHEAL damage rating (Rates 250) was 40 and the CHEAL damage rating (Rates 500) was 50. For the same molecule, the “damage to plant (100=total damage to plant; 0=no damage to plant), CYPES” value (rate 15) was 0, the “damage to plant (100=total damage to plant; 0=no damage to plant), CYPES” value (rate 30) was 0 and the “damage to plant (100=total damage to plant; 0=no damage to plant), CYPES” value (rate 60) was 0. For the same molecule, the “damage to plant (100=total damage to plant; 0=no damage to plant), CYPES” value (rate 130) was 0, the “damage to plant (100=total damage to plant; 0=no damage to plant), CYPES” value (rate 250) was 0 and the “damage to plant (100=total damage to plant; 0=no damage to plant), CYPES” value (rate 500) was 0. For the same molecule, the “damage to plant (100=total damage to plant; 0=no damage to plant), EPHHL” value (rate 15) was 0, the “damage to plant (100=total damage to plant; 0=no damage to plant), EPHHL” value (rate 30) was 0 and the “damage to plant (100=total damage to plant; 0=no damage to plant), EPHHL” value (rate 60) was 0. The “damage to plant (100=total damage to plant; 0=no damage to plant), EPHHL” value (rate 130) was 0, the “damage to plant (100=total damage to plant; 0=no damage to plant), EPHHL” value (rate 250) was 0 and the “damage to plant (100=total damage to plant; 0=no damage to plant), EPHHL” value (rate 500) was 10. The GALAP damage rating (Rates 15) was 0, the GALAP damage rating (Rates 30) was 0 and the GALAP damage rating (Rates 60) was 0. For the same molecule, the GALAP damage rating (Rates 130) was 0, the GALAP damage rating (Rates 250) was 0 and the GALAP damage rating (Rates 500) was 0. The “damage to plant (100=total damage to plant; 0=no damage to plant), GLXMA” value (rate 15) was 0, the “damage to plant (100=total damage to plant; 0=no damage to plant), GLXMA” value (rate 30) was 0 and the “damage to plant (100=total damage to plant; 0=no damage to plant), GLXMA” value (rate 60) was 0. The “damage to plant (100=total damage to plant; 0=no damage to plant), GLXMA” value (rate 130) was 0, the “damage to plant (100=total damage to plant; 0=no damage to plant), GLXMA” value (rate 250) was 0 and the “damage to plant (100=total damage to plant; 0=no damage to plant), GLXMA” value (rate 500) was 0. For the same molecule, the “damage to plant (100=total damage to plant; 0=no damage to plant), IPOHE” value (rate 15) was 0, the “damage to plant (100=total damage to plant; 0=no damage to plant), IPOHE” value (rate 30) was 0 and the “damage to plant (100=total damage to plant; 0=no damage to plant), IPOHE” value (rate 60) was 0. For the same molecule, the “damage to plant (100=total damage to plant; 0=no damage to plant), IPOHE” value (rate 130) was 0, the “damage to plant (100=total damage to plant; 0=no damage to plant), IPOHE” value (rate 250) was 0 and the “damage to plant (100=total damage to plant; 0=no damage to plant), IPOHE” value (rate 500) was 0. The KCHSC damage rating (Rates 15) was 0, the KCHSC damage rating (Rates 30) was 0 and the KCHSC damage rating (Rates 60) was 0. The KCHSC damage rating (Rates 130) was 0, the KCHSC damage rating (Rates 250) was 0 and the KCHSC damage rating (Rates 500) was 10. For the same molecule, the LOLPE damage rating (Rates 15) was 0, the LOLPE damage rating (Rates 30) was 0 and the LOLPE damage rating (Rates 60) was 0. For the same molecule, the LOLPE damage rating (Rates 130) was 0, the LOLPE damage rating (Rates 250) was 0 and the LOLPE damage rating (Rates 500) was 10. The POAAN damage rating (Rates 15) was 0, the POAAN damage rating (Rates 30) was 0 and the POAAN damage rating (Rates 60) was 0. It also gave a POAAN damage rating (Rates 130) of 0, a POAAN damage rating (Rates 250) of 20 and a POAAN damage rating (Rates 500) of 40. For the same molecule, the “damage to plant (100=total damage to plant; 0=no damage to plant), SORVU” value (rate 15) was 0, the “damage to plant (100=total damage to plant; 0=no damage to plant), SORVU” value (rate 30) was 0 and the “damage to plant (100=total damage to plant; 0=no damage to plant), SORVU” value (rate 60) was 0. The “damage to plant (100=total damage to plant; 0=no damage to plant), SORVU” value (rate 130) was 0, the “damage to plant (100=total damage to plant; 0=no damage to plant), SORVU” value (rate 250) was 0 and the “damage to plant (100=total damage to plant; 0=no damage to plant), SORVU” value (rate 500) was 0. For the same molecule, the STEME damage rating (Rates 15) was 0, the STEME damage rating (Rates 30) was 0 and the STEME damage rating (Rates 60) was 0. For the same molecule, the STEME damage rating (Rates 130) was 0, the STEME damage rating (Rates 250) was 10 and the STEME damage rating (Rates 500) was 70. It also gave a VERPE damage rating (Rates 15) of 0, a VERPE damage rating (Rates 30) of 0 and a VERPE damage rating (Rates 60) of 0. It also gave a VERPE damage rating (Rates 130) of 0, a VERPE damage rating (Rates 250) of 50 and a VERPE damage rating (Rates 500) of 60.
